Legend:
Type in all cases: cell-based
[1] = test system: normal human skin samples; test: Ex vivo chronic inflammation model (CSC): H&E histology; settings: 500 μM of each peptide; cell stimulation cocktail (CSC); 7-day culture; human skin explants
Experimental: Fresh post-abdominoplasty normal human skin samples were acquired from BioIVT Inc. (Westbury, NY). Tissue was defatted and cleaned of blood residue. 1.2 cm diameter skin biopsies were created and cultured at the air-liquid interface. Skin explants not subjected to the inflammatory stimulant served as the untreated control group. Control samples were cultured in Dulbecco's Modified Eagle's Medium (650 μL per well, DMEM with 10% fetal bovine serum and 1% penicillin-streptomycin) at 37° C. and 5% CO2. Treated microneedle samples with the peptides were cultured in DMEM with 10% fetal bovine serum, 1% penicillin-streptomycin with a 2× dilution of cell stimulation cocktail (CSC) 500×. Samples treated with the peptide contained 500 μM of each peptide dissolved into the media. Fresh stimulants were made each time replenishing the treatment medium every other day with the exception of weekends. Following a 7-day culture period, all biopsies were processed for histological and immunohistochemical analysis. Skin explants were processed for hematoxylin and eosin (H&E) staining and immunohistochemical staining against filaggrin (FLG) and transglutaminase 1 (TGM1) according to standard protocol (HistoWiz, Brooklyn, NY).

[2] = test system: transglutaminase 1 (TGM1); test: Barrier renewal, microneedle ex vivo skin model: TGM1 immunohistochemistry; settings: 500 μM of each peptide in media; 7-day culture; microneedled human skin explants
Excerpt: (§1) Fresh post-abdominoplasty normal human skin samples were acquired from BioIVT Inc. (Westbury, NY). Tissue was defatted and cleaned of blood residue. Tissue was then subjected to treatment using a microneedling pen (36-pin needles, Dr. Pen A6 Cartridges Tips, Dr. Pen Inc., San Jose, CA, USA) with a needle length of 1.5 mm. Tissue was subjected to 5 passes of the microneedle. Following treatment, 1.2 cm diameter skin biopsies were created and cultured at the air-liquid interface. Skin explants not subjected to microneedling served as the untreated control group. Control and microneedle control samples were cultured in Dulbecco's Modified Eagle's Medium (650 μL per well, DMEM with 10% fetal bovine serum and 1% penicillin-streptomycin) at 37° C. and 5% CO2. Treated microneedle samples with the peptides were cultured in DMEM with 10% fetal bovine serum, 1% penicillin-streptomycin. 500 uM of each peptide was dissolved into the media. Treatment medium was changed every other day with the exception of weekends. Following a 7-day culture period, all biopsies were processed for histological and immunohistochemical analysis. Skin explants were processed for hematoxylin and eosin (H&E) staining and immunohistochemical staining against filaggrin (FLG) and transglutaminase 1 (TGM1) according to standard protocol (HistoWiz, Brooklyn, NY).

[3] = test system: Adult Normal Human Epidermal Keratinocytes; test: Differential gene expression (RNA sequencing) in keratinocytes treated with walnut peptides; settings: 100 uM or 500 uM peptide in culture media
Experimental: Peptide I, II, and III were investigated for their ability to influence gene expression at concentration at 100 μM abd 500 μM for cells and 250 μM for reconstructed human epidermis (RHE).
Adult Normal Human Epidermal Keratinocytes (Lot 80819221, Passage 3, ATCC) were expanded and seeded into a 6-well plate at a density of 300,000 cells/well. Cells were grown in Dermal Cell Basal Medium (ATCC PCS-200-030) supplemented with one Keratinocyte Growth Kit (ATCC PCS-200-040). Cells attached overnight and then culture media was aspirated and replaced with media containing either 100 uM or 500 uM of Peptide I, Peptide II, or Peptide III. Cells were cultured for […] with treatment with renewal of treatment medium every other day with the exception of weekends. Following the 7-day incubation period, cells were trypsinized and the cell pellet was snap-frozen using liquid nitrogen. Cells then underwent RNA sequencing. The log 2 fold change for each treatment group compared to untreated control samples for differentially expressed genes (DEGs) related to skin barrier were analyzed. Fold change was plotted via heatmap to show upregulation or downregulation of these genes. Microsoft Excel and GraphPad Prism were used for additional analysis and data presentation. The results are shown in the heatmap of FIG. 1.

filaggrin (FLG) = test: Barrier renewal, microneedle ex vivo skin model: filaggrin immunohistochemistry; settings: 500 μM of each peptide in media; 7-day culture; microneedled human skin explants
Excerpt: as §1

| Substance | epidermal stress, spongiosis/vacuole formation induced by CSC (H&E histology, FIG. 4) [1] | expression and localization of TGM1 after microneedling [2] | differentially expressed genes (DEGs) related to skin barrier, log 2 fold change compared to untreated control (FIG. 1) [3] | filaggrin expression after microneedling (filaggrin (FLG)) |
| --- | --- | --- | --- | --- |
| Thr-Trp-Leu-Pro-Leu-Pro-Arg (TWLPLPR) (printed: Thr-Trp-Leu-Pro-Leu-Pro-Arg) [Peptide I] | ameliorated | increase the expression of TGM1 and localization | showed an influence at the higher concentration | increase filaggrin expression |
| Lys-Val-Pro-Pro-Leu-Leu-Tyr (KVPPLLY) (printed: Lys-Val-Pro-Pro-Leu-Leu-Tyr) [Peptide III] | ameliorated | increase the expression of TGM1 and localization | strong benefits to the skin barrier on a cellular level at both concentrations tested | increase filaggrin expression |
| Tyr-Val-Leu-Leu-Pro-Ser-Pro-Lys (YVLLPSPK) (printed: Tyr-Val-Leu-Leu-Pro-Ser-Pro-Lys) [Peptide II] | ameliorated | increase the expression of TGM1 and localization | strong benefits to the skin barrier on a cellular level at both concentrations tested | increase filaggrin expression |
